Tests used:
[1] = Drug metabolism in potassium phosphate buffer treated with R-133490 at 1 uM after 1 to 10 mins by LC-MS/MS analysis; format: physicochemical
[2] = Drug metabolism in potassium phosphate buffer treated with R-133490 at 1 uM after 1 to 10 mins by LC-MS/MS analysis in presence of human liver cytosol and glutathione; format: physicochemical
[3] = system: Liver cytosol; experiment: Drug metabolism in human liver cytosol treated with R-133490 at […] 0.05 mM after 5 mins by HPLC analysis in presence of dithiothreitol and 67 ug/ml anti-human thioredoxin antibody; format: ADME; settings: 50 µM
[4] = system: Liver microsome; experiment: Drug metabolism in human liver microsomes treated with R-133490 at 1 uM after 1 to 10 mins by LC-MS/MS analysis in presence of human liver cytosol and glutathione; format: ADME

Measured: Drug metabolism

O=C(O)/C=C1/CN(C(C(=O)C2CC2)c2ccccc2F)CCC1S (centres undefined) [R-138727]
metabolite_detected: all assays above

Reference: ChEMBL document CHEMBL3525970, “Glutaredoxin and thioredoxin can be involved in producing the pharmacologically active metabolite of a thienopyridine antiplatelet agent, prasugrel” (Drug Metab Dispos, 2011)
